Key:
[1] = Log P, shake-flask octanol-water partition; type: physicochemical; details: n-octanol / PBS (pH=7.4), error = standard deviation
Procedure: Log P measurements were performed with The shake-flask method based on compound partitioning between n-octanol and PBS (pH=7.4) layers. Octanol (saturated with PBS) and PBS (saturated with octanol) was obtained by vigorous mixing for one hour followed by layer separation in a separatory funnel over 24 hours. For Gal-Cu(gtsm): 500 μL of standard solutions were made with 100, 50, 20, 10, and 5 μM of Gal-Cu(gtsm) dissolved in PBS-saturated octanol. 50 mM stock solution in DMSO was diluted to 100 μM final concentration with 490/10, 480/20, and 460/40 μL of saturated octanol/PBS. For Cu(gtsm): 500 μL of standard solutions were made with 100, 50, 20, 10, and 5 μM of […]. 50 mM stock solution in DMSO was diluted to 100 μM final concentration with 10/490, […], and 50/450 μL of saturated octanol/PBS. All standards and samples were vortexed vigorously in 1.7 mL microcentrifuge tubes for 60 seconds, then spun down at 12,000 g for 2 mins in a microcentrifuge. 200 μL of each standard and sample were added to a clear 96-well plate, and the blank-subtracted absorbance at 470 nm was read in a Synergy M2 plate reader. All standards and samples were measured in duplicate. Log P values were calculated from the subsequent partition coefficients and averaged across the three partition conditions to obtain the final log P value. […]

[2] = system: HepG2 (ASGPR-expressing) cells; test: Cellular copper delivery by ICP-MS, HepG2; type: cell-based
Procedure: Cells were maintained by the UC Berkeley Tissue Culture Facility. HEK 293T and HepG2 cells were maintained as a monolayer in exponential growth at 37° C. in a 5% CO2 atmosphere. HEK 293T cells were maintained in Dulbecco's Modified Eagle Medium (DMEM, Gibco) supplemented with 10% fetal bovine serum (FBS, Hyclone), and glutamax (Gibco). HepG2 cells were maintained in low glucose DMEM with L-glutamine and sodium pyruvate (Gibco). One day before ionophore treatment, cells were passaged and plated in DMEM with glutamax supplemented with 10% FBS on either poly D-lysine-coated (HEK 293T) or gelatin-coated (HepG2) sterile 6-well Corning polystyrene plates. Cells were grown to 60 to 80% confluency prior to ionophore treatment.
Cells were washed twice with serum-free DMEM. 2 mM stock solutions of Cu(gtsm) or Gal-Cu(gtsm) were diluted in serum-free DMEM to a final ionophore concentration of 4 μM. 2 mL of vehicle (0.2% DMSO in DMEM), 4 μM Cu(gtsm), or 4 μM Gal-Cu(gtsm) were then added to the 6-well plates and incubated for three hours. For the galactose competition experiment, cells were washed twice with serum-free DMEM, then incubated with 2 mL serum-free DMEM either with or without 1 M D-galactose (Sigma Aldrich) for 15 minutes. 4 μL of DMSO, 2 mM Cu(gtsm), or 10 mM Gal-Cu(gtsm) was diluted with 300 μL of cell media, which was then mixed back into each well. Cells were then incubated for one hour. Cells were then rinsed twice with ice-cold EDTA (1 mM in 50 mM HEPES buffer, pH=7.4) to remove cell surface-bound copper and rinsed twice with ice-cold 50 mM HEPES buffer (pH=7.4), followed by the addition of 215 μL concentrated nitric acid (BDH Aristar Ultra). The plates were sealed with Parafilm and incubated on a shaker overnight. Samples (150 μL) were further diluted in 2 mL 2% nitric acid (made freshly from concentrated nitric acid and Milli-Q water) in 15 mL tubes (Sarstedt) and analyzed on a Thermo Fisher iCAP Qc ICP mass spectrometer in kinetic energy discrimination (KED) mode against a standard curve of known copper and phosphorus concentrations (CMS-5, Inorganic Ventures), with Ga (20 μg/L, Inorganic Ventures) as an internal standard. Each experiment was carried out twice and each condition was repeated in at least triplicate.

[3] = Retention of copper in presence of excess Zn^2+ and Fe^2+; type: physicochemical; details: 1000-fold excess of Zn^2+ and Fe^2+
Procedure: All spectroscopic measurements were performed in 20 mM PBS, pH 7.4 unless otherwise indicated. Absorption spectra were acquired on a Varian Cary 50 spectrophotometer.

[4] = system: HepG2 cells; test: Cell viability, propidium iodide staining, HepG2; type: cell-based; details: 500 μM dose, HepG2, three hours
Procedure: Flow cytometry experiments were performed with BD LSR Fortessa Cell Analyzer in the College of Chemistry at UC Berkeley. Gains were set to include live cells based on viability experiments using propidium iodide, with dead cells via 0.1% saponin treatment as a negative control. The standard PE-A (570 nm longpass, 586/15 nm bandpass) was used. For each biological replicate, three technical replicates of 5,000 (HepG2) or 10,000 cells (HEK 293T) were counted. Flow cytometry data was processed using FlowJo (FlowJo, LLC).
HEK 293T cells were plated in 6-well plates at 60-80% confluency. After ionophore treatment at the given concentration for three hours, cells were washed with DMEM and incubated with 3 μM propidium iodide in PBS for 15 minutes, then rinsed in PBS. HEK 293T cells were mechanically removed via pipetting off the plate with 1 mL PBS and filtered through a 35 μm nylon mesh into 5 mL culture tubes for analysis. HepG2 cells were plated in 12-well plates at 60-80% confluency. […]

CNC1=N[N+]2=CC=[N+]3N=C(NCCOCCOCCOC4OC(CO)C(O)C(O)C4NC(C)=O)[S][Cu-2]23[S]1 (stereo not shown) [Gal-Cu(gtsm)]
log P [1]: −1.03±0.10 | Cu increase relative to basal levels (^63Cu/^31P) ([2]; HepG2, 4 μM, three hours, serum-free DMEM): 4 fold | temperature dependent uptake ([2]; HepG2, 4° C. vs 37° C.): much higher uptake at 37 °C than at 4 °C | Cu delivery in presence of D-galactose (competitive ASGPR ligand) ([2]; HepG2, D-galactose 1 M, one hour, Cu(gtsm) 4 μM, Gal-Cu(gtsm) 20 μM): significantly attenuated | dose response of cellular copper content ([2]; HepG2, ICP-MS total copper): robust dose-dependent copper delivery response | retention of copper in presence of other metal ions [3]: retains copper selectively | ionophore toxicity (cell viability) [4]: non-toxic

From patent US11504394B2, “Targeted ionophore-based metal delivery” (The Regents of the University of California, priority 2018, dated 2022)
